We go through one compound from patent publication US20250320246A1, “3-AZASTEROID COMPOUNDS FOR THE TREATMENT OF DISEASES RELATED TO MITROCHONDRIAL FUNCTION” (NZP UK LIMITED, priority 2022, published 2025).

What is called EC50 is the concentration giving half of the maximal effect. Low readings indicate a more potent agent, high ones a less potent agent.

Assay [1] deals with iNeurons from sPD patients. Kind of assay: Activated caspase 3 levels (apoptosis) in iNeurons from sPD patients. The class given is cell-based, human. The procedure:
(§1) The fibroblasts lines and iNPC lines have previously been characterised and published in Carling et al, 2020.
(§2) Briefly, iNPCs are plated in a 6-well plate and cultured for 2 days in DMEM/F-12 medium with Glutamax™ supplemented with 1% NEAA, 2% B27 (Gibco) and 2.5 μM of DAPT. On day 3, DAPT is removed and the medium is supplemented with 1 μM smoothened agonist (SAG) and FGF8 (75 ng/ml) for additional 10 days. Neurons are replated at this stage. Subsequently SAG and FGF8 are withdrawn and replaced with BDNF (30 ng/ml), GDNF (30 ng/ml), TGF-b3 ([…]) and dcAMP (2 mM, Sigma) for 15 days, as previously described Schwartzentruber et al, 2020 and Carling et al, 2020. Dopaminergic neurons were treated with compounds at concentrations of 0.1 nM, 1 nM, 3 nM, 10 nM, 30 nM and 100 nM dosing every 3 days for the last 12 days of differentiation.
(§3) Cells are plated into 96 well plates and fixed using 4% paraformaldehyde for 30 minutes. After PBS washes cells are permeabilised using 0.1% Triton™ X-100 for 10 minutes and blocked using 5% goat serum for 1 hour. Cells are incubated with primary antibodies βIII tubulin (Millipore); activated caspase 3 (Cell Signaling); at 4° C. for 16 hours. Cells are washed using PBS-Tween® and incubated with Alexa Fluor™-conjugated secondary antibodies 488 and 568 (Invitrogen) and Hoescht (Sigma) 1 μM prior to imaging. Imaging was performed using the Opera Phenix™ high content imaging system (Perkin Elmer).

In assay [2] the test system is iNeurons from sPD patients. The assay can be described thus: Cellular ATP in iNeurons (dopaminergic neurons derived from sPD patients). It counts as cell-based, human. The procedure:
as §1, §2
(§4) iNeurons were treated every 3 days for the last 12 days of the differentiation protocol. Cells are plated in 96 well plates; for live imaging cells are incubated for one hour at 37° C. with 80 nM tetramethlyrhodamine (TMRM), 1 μM LysoTracker® Green (Invitrogen) and Hoechst Stain solution (Sigma) at 1 μM before imaging using Opera Phenix™. Cellular ATP measurements are undertaken using ATPlite kit (Perkin Elmer) as per manufacturer's instructions. Mitochondrial reactive oxygen species generation was assessed using mitochondrial NpFR2 (probe; a kind gift from Dr Liz New, University of Sydney, Australia) at 20 μM and Hoechst stain solution at 1 μM for 30 mins at 37° C., then the dyes are removed and cells images using Opera Phenix™. Images generated from the live imaging experiments were analysed using Harmony® (Perkin Elmer software). We developed protocols in order to segment nucleus, cell boundary and processes, mitochondria, lysosomes, autophagosomes. We only analysed the z projection images collected from the z stacks.

The test system of assay [3] is sporadic Parkinson's disease patient fibroblast lines. The assay can be described thus: Mitochondrial respiration (oxygen consumption rate), Seahorse Mito Stress test. The class given is cell-based, human. Particulars: 50 nM for 24 hours, sPD fibroblasts. How it is done:
Oxygen consumption rate (OCR) was measured by the Agilent Seahorse Mito Stress test using a 24-well Agilent Seahorse XF analyzer machine (Agilent). Human fibroblasts where plated at a density of 60,000 cells per well. Cells were treated with compound 50 nM for 24 hours prior to measurement. 3 measurements of OCR were taken in each state: basal state, after addition of oligomycin (0.5 μM), FCCP (0.5 μM) and rotenone (1 μM). A cell count was then done on a fixed assay plate using a Hoechst dye (1 μM). Data presented is normalized to cell number.

Assay [4] deals with iNeurons from sPD patients. Kind of assay: Neuronal morphology (elongation) in iNeurons from sPD patients. It counts as cell-based, human. How it is done:
as §1, §2, §3
iNeurons were treated every 3 days for the last 12 days of the differentiation protocol. […] Mitochondrial reactive oxygen species generation was assessed using mitochondrial NpFR2 (probe; a kind gift from Dr Liz New, University of Sydney, Australia) at 20 μM and Hoechst stain solution at 1 μM for 30 mins at 37° C., then the dyes are removed and cells images using Opera Phenix™. Images generated from the live imaging experiments were analysed using Harmony® (Perkin Elmer software). […] We only analysed the z projection images collected from the z stacks.

The test system of assay [5] is iNeurons from sPD patients. The assay can be described thus: Mitochondrial membrane potential (MMP) in iNeurons from sPD patients. The class given is cell-based, human. The procedure:
as §1, §2, §4

The test system of assay [6] is iNeurons from sPD patients. Kind of assay: Mitochondrial reactive oxygen species (ROS) in iNeurons from sPD patients. The class given is cell-based, human. As to conditions: sPD patient iNeurons treated; untreated sPD patients 115. The procedure:
as §1, §2, §4

The test system of assay [7] is mitochondrial respiratory chain complex I. The assay can be described thus: Complex I assay in mouse whole brain homogenate after IV dosing. The class given is in vivo. As to conditions: wild type mouse, 2 mg/kg IV. The procedure:
Ex vivo mice brain was homogenated in a buffer of 250 mM sucrose, 20 mM HEPES, 3 mM EDTA, pH 7.5 at 4° C. Homogenisation was carried out using a Dounce homogenizer, for cortex samples, and by repetitive passage through a 0.5 mm syringe for isolated striatum. Samples were then incubated with 30 μl of detergent from the AbCam colorimetric Complex I assay kit on ice for 20 minutes. Samples are then centrifuged at 13,000 rpm for 30 mins. Triplicate samples per condition were blocked using the kit blocking buffer on the AbCam colorimetric Complex I assay kit plate for 3 hours. Samples are then washed using the kit wash buffer 3 times before the addition of the kit assay buffer containing NADH and colorimetric dye. The assay plate is read on a plate reader in a kinetic assay programme reading 450 nm in a 30 second interval for 50 minutes.
By 12 hours post injection complex I activity began to reduce again and was elevated by 98% above control. By 24 hours post injection, complex I activity was still elevated by 35% above control levels.

[8] abbreviates: sPD derived dopaminergic neurons.

`C[C@H](CCCC(=O)O)[C@H]1CC[C@H]2[C@@H]3[C@@H](O)C[C@@H]4CNCC[C@]4(C)[C@H]3CC[C@]12C.Cl` [Compound 28b, 3-Aza-7β-hydroxy-25-homo-5β-cholan-25-oic acid hydrochloride]: the “apoptosis levels (as measured by activated caspase 3 levels), in words” value in assay [1] (setting [8]) is “reducing apoptosis levels”. Also, the “Activated caspase 3 levels” value in assay [1] (sPD patient iNeurons treated, untreated sPD patients 162) is 138 % of level in iNeurons from Controls. Further, the EC50 came to 5 nM in assay [2] (Homo sapiens, Neuron, sPD patient iNeurons, dosing every 3 days for last 12 days of differentiation) and 8.2 nM in assay [5] (Homo sapiens, sPD patient iNeurons, dosing every 3 days for last 12 days of differentiation). In addition, in assay [2] (both mitochondrial parameters (Table 3)), the “effect on mitochondrial parameters in sPD derived dopaminergic neurons” value is on record as “provides a protective effect on both mitochondrial parameters”. Also, the “ATP normalisation (% of controls)” value in assay [2] (sPD patient iNeurons treated, untreated sPD patients 50) is on record as 94.3 % of controls. The basal mitochondrial respiration result in assay [3] (p<0.05, vehicle sPD reduced 30% vs controls) is recorded as “increases basal respiration in the sPD fibroblasts to control levels”. In addition, the ATP linked respiration result in assay [3] (to a lesser extent, vehicle sPD reduced 23% vs controls) is “Increases are also seen”. Further, in assay [3] (to a lesser extent, vehicle sPD reduced 42% vs controls), the spare respiratory capacity entry is given as “Increases are also seen”. In addition, in assay [4] (setting [8]), the “neuronal morphology, in words” value is “improving neuronal morphology”. Besides, the “Neuronal morphology (elongation; % controls)” value in assay [4] (sPD patient iNeurons treated, untreated sPD patients 48) was found to be 68 % controls. Further, the “MMP normalisation (% of controls)” value in assay [5] (sPD patient iNeurons treated, untreated sPD patients 52) is listed as 76 % of controls. Also, the “ROS normalisation (% of controls)” value in assay [6] is given as 109 % of controls. In assay [7] (4 and 8 hours post injection), the “complex I activity” value was “remained elevated to a similar extent”. Also, the “complex I activity increase” value in assay [7] (1 hour after dosing) came to 125%. For the same compound, the “complex I activity elevated above control” value in assay [7] (12 hours post injection) is listed as 98%. Further, in assay [7] (24 hours post injection), the “complex I activity elevated above control levels” value came to 35%.
